Consider 4 substances from patent publication US7045343B2, “Sterilization indicator test packs” (3M Innovative Properties Company, priority 1998, dated 2006).

Test [1] relates to enzyme associated with Bacillus stearothermophilus spores. The experiment in a line: Rapid enzyme fluorescence readout of dual rapid readout indicators after prevacuum steam sterilization. As to conditions: 4-pulse prevacuum steam 121° C. Format: biochemical. How it is done:
(§1) The indicators prepared for the Examples were dual rapid readout indicators that provided both a rapid, enzyme-based efficacy test and a confirmatory spore outgrowth test. Spores coated on the carrier strip 16 served as the source of active enzyme whose activity was measured by the rapid enzyme test. These same spores were then incubated in the spore outgrowth portion of the test.
(§2) Bacillus stearothermophilus, commercially available as ATCC 7953 from American Type Culture Collection, Rockville, Md., was grown overnight (16 hours) at 58° C. in tryptic soy broth. This culture was used to inoculate the surface of agar plates consisting of 8 g/l nutrient broth, 4 g/l yeast extract, 0.1 g/l manganese chloride and 20 g/l agar at pH 7.2. Plates were incubated at 58° C. for 72 hours. Spores were scraped from the plates and suspended in sterile distilled water. The spores were separated from the vegetative debris by centrifuging the suspension at 7000 rpm and 4° C. for 20 minutes. The supernatant was poured off and the spores were resuspended in sterile distilled water. The cleaning procedure was repeated several times. After the final wash, the spores were suspended in sterile distilled water, at a concentration of approximately 1×10^8 spores per milliliter.
(§3) The spores were then treated with the chemicals identified in Tables 1–5. All chemicals tested were obtained from commercial sources. The spores were centrifuged at 6000 rpm for 10 minutes. The supernatant and coating chemical mixtures were heated at 60–80° C. for several minutes and vortexed to get the material into solution. The spores were then mixed into the sterilant-resistant chemical solution. The sterilant-resistant chemical solution was applied to 5×25 mm, 591 A paper strips (Schleicher & Schuell, Inc., Keene, N.H.) by pipetting 10–15 microliters to each strip for a final population of about 1×10^6 spores per strip. The strips were dried 16 hours at 37° C.
(§4) The treated spore strips were placed on the bottom of the outer container 12 of the indicator 10 and a barrier was inserted between the spore strip 16 and the inner container 18, which contained enzyme substrate. A […] ( 11/16 inch) disc of polypropylene blown microfiber material, with a weight of 200 g/m^2, commercially available as “THINSULATE™ 200-B brand Thermal Insulation” from 3M Company, St. Paul, Minn., was used as the barrier. The inner container 18 contained 0.67 ml nutrient medium, consisting of 17 g of a bacteriological peptone and a 0.17 g/l of L-alanine, as well as 0.1 g 4-methylumbelliferyl-alpha-D-glucoside, commercially available from Sigma Chemical Company, St. Louis, Mo., dissolved in 200 microliters of N,N-dimethylformamide, and 0.03 g bromocresol purple pH indicator dye, per liter of water. The pH of the enzyme substrate and nutrient medium solution was adjusted to 7.6 with 0.1N sodium hydroxide.
(§5) Sterilization indicators were made as described above with each of the chemicals and concentrations described in Table 1. Control indicators were made using untreated spores. The indicators were placed in metal instrument trays and exposed at 121° C. in a Getinge Steam Sterilizer (Getinge International, Inc., 1100 Towbin Ave., Lakewood, N.J.) using a 4-pulse prevacuum cycle at 121° C. with a vacuum level of 0.075–0.085 bar and a steam pulse to 1.00 bar for each pulse. Indicators were exposed in the sterilizer for between 7 and 13 minutes. This cycle is depicted in the time-pressure diagram in FIG. 5. After exposure the inner containers containing the enzyme substrate and nutrient medium were crushed and the indicators were incubated at 60° C. The indicators were examined for fluorescence using a 3M™ ATTEST™ Model 190 Rapid Autoreader, commercially available from 3M Company, St. Paul, Minn. Additionally, spore growth, as indicated by a color change from purple to yellow, was determined visually after 168 hours of incubation at 60° C. […]

Test [2] concerns Bacillus stearothermophilus spores. Briefly: Spore outgrowth (color change) of indicators after prevacuum steam sterilization. The test is classed as cell-based. To be noted: 4-pulse prevacuum steam 121° C. How it is done: as §1, §2, §3, §4, §5
[3] abbreviates: Example 4, 50 mg/ml coating, 7–18 min.
[4] abbreviates: Example 4, 100 mg/ml coating, 7–18 min.
Setting [5] is: Example 4, 25 mg/ml coating, 7–18 min.
The mark [6] stands for this setting: Example 1, 5 mg/ml coating, 7–13 min.
[7] abbreviates: Example 1, 10 mg/ml coating, 7–13 min.
[8] abbreviates: Example 1, 20 mg/ml coating, 7–13 min.
Where [9] appears, read: Example 1, 40 mg/ml coating, 7–13 min.
Setting [10] is: Example 5, 50 mg/ml coating, 7–13 min.

With Decaglyceryl Monolaurate, the “accuracy of sterilization indicators compared to indicators made with untreated spores” value in test [1] was “improved”. For the same substance, in test [1] (setting [3]), the “FLUORESCENCE - PERCENT POSITIVE 1 HR” value came out at 0%, the “FLUORESCENCE - PERCENT POSITIVE 2 HR” value is 27.3%, the “FLUORESCENCE - PERCENT POSITIVE 3 HR” value is reported as 72.7% and the “FLUORESCENCE - PERCENT POSITIVE 4 HR” value is reported as 72.7%. In test [1] (setting [4]), the “FLUORESCENCE - PERCENT POSITIVE 1 HR” value is recorded as 87%, the “FLUORESCENCE - PERCENT POSITIVE 2 HR” value stood at 100.0%, the “FLUORESCENCE - PERCENT POSITIVE 3 HR” value came to 100.0% and the “FLUORESCENCE - PERCENT POSITIVE 4 HR” value is reported as 100.0%. In addition, the “NO. GROWTH POSITIVE 168 HR” value in test [2] (setting [3]) stood at 11. Moreover, in test [2] (setting [4]), the “NO. GROWTH POSITIVE 168 HR” value was 23.

As to Hexaglyceryl Distearate, the “accuracy of sterilization indicators compared to indicators made with untreated spores” value in test [1] is on record as “improved”. For the same substance, the “FLUORESCENCE - PERCENT POSITIVE 1 HR” value in test [1] (setting [5]) amounted to 27.6%; in test [1] (setting [3]) it was 30.3%; in test [1] (setting [4]) it was 71.4%. Moreover, the figures for the “FLUORESCENCE - PERCENT POSITIVE 2 HR” value in test [1] (setting [5]), in test [1] (setting [3]) and in test [1] (setting [4]) were 51.7%, 57.6% and 100%, respectively. Besides, the results for the “FLUORESCENCE - PERCENT POSITIVE 3 HR” value in test [1] (setting [5]), in test [1] (setting [3]) and in test [1] (setting [4]) were 58.6%, 97% and 100%, respectively. Besides, the “FLUORESCENCE - PERCENT POSITIVE 4 HR” value in test [1] (setting [5]) was found to be 62.1%; in test [1] (setting [3]) it was 100%; in test [1] (setting [4]) it was 100%. For the same substance, the “NO. GROWTH POSITIVE 168 HR” value in test [2] (setting [5]) amounted to 29; in test [2] (setting [3]), 33; in test [2] (setting [4]) it was 21.

Turning to Tetraglyceryl Monostearate, the “FLUORESCENCE - PERCENT POSITIVE 1 HR” value in test [1] (setting [6]), in test [1] (setting [7]), in test [1] (setting [8]) and in test [1] (setting [9]) was 0% each time. Besides, the “FLUORESCENCE - PERCENT POSITIVE 2 HR” value in test [1] (setting [6]) is listed as 43.2%; in test [1] (setting [7]) it was 63.0%; in test [1] (setting [8]), 74.3%; in test [1] (setting [9]), 94.7%. Moreover, the “FLUORESCENCE - PERCENT POSITIVE 3 HR” value in test [1] (setting [6]) amounted to 67.6%; in test [1] (setting [7]), 81.5%; in test [1] (setting [8]), 92.9%; in test [1] (setting [9]) it was 100.0%. For the same substance, the “FLUORESCENCE - PERCENT POSITIVE 4 HR” value in test [1] (setting [6]) is 83.8%; in test [1] (setting [7]), 94.4%; in test [1] (setting [8]) it was 100.0%; in test [1] (setting [9]) it was 100.0%. Moreover, the “FLUORESCENCE - PERCENT POSITIVE 5 HR” value in test [1] (setting [6]) is 94.6%; in test [1] (setting [7]), 96.3%; in test [1] (setting [8]) it was 100.0%; in test [1] (setting [9]) it was 100.0%. Moreover, the “FLUORESCENCE - PERCENT POSITIVE 6 HR” value in test [1] (setting [6]) came out at 97.3%; in test [1] (setting [7]), 98.1%; in test [1] (setting [8]) it was 100.0%; in test [1] (setting [9]) it was 100.0%. For the same substance, the “NO. GROWTH POSITIVE 168 HR” value is given as 37 in test [2] (setting [6]), 54 in test [2] (setting [7]), 70 in test [2] (setting [8]) and 19 in test [2] (setting [9]).

As for POE(10) Phytosterol, in test [1] (setting [10]), the “FLUORESCENCE - PERCENT POSITIVE 1 HR” value was 0%, the “FLUORESCENCE - PERCENT POSITIVE 2 HR” value is 0%, the “FLUORESCENCE - PERCENT POSITIVE 3 HR” value turned out to be 0% and the “FLUORESCENCE - PERCENT POSITIVE 4 HR” value is recorded as 0%. The “NO. GROWTH POSITIVE 168 HR” value in test [2] (setting [10]) stood at 2.
